This note sets out measurements from patent publication US20100273205A1, “Magnetic resonance imaging contrast agents” (priority 2005, published 2010).

The test system of this test is formalin-fixed visual cortex (gray and white matter). Kind of test: LFB relaxation enhancement, inversion-recovery spin-echo and multi-echo spin-echo MR at 14T. Also on record: species or system human. The settings on record: LFB in 95% ethanol then Li2CO3, versus formalin control. The method, then:
Formalin-fixed samples of visual cortex, approximately 1 cm in thickness, were immersed in a mixture of LFB dissolved in a solvent of 95% ethanol (500 mg LFB in 50 ml ethanol) for durations between 48 hours and 3 months. Following LFB staining, the tissue was rinsed in 70% ethanol, rinsed in distilled water, and then immersed in an aqueous solution of lithium carbonate(Li2CO3) (0.25 g Li2CO3 in 500 mL water) until gray-white matter contrast had increased, ranging between approximately 5 minutes and 24 hours. Next, the tissue was rinsed twice more in 70% ethanol and lastly in distilled water. Additional control samples were prepared with 1) formalin only or 2) 95% ethanol followed by immersion in Li2CO3.
Tissue samples were blotted and then immersed in perfluoropolyether (Fomblin, Ausimont USA, Thorofare, N.J.) in a low-pressure environment. […] The low-pressure environment is used to remove artifact-inducing air bubbles from within the tissue.
Data was acquired using a 10 mm birdcage coil in a vertical bore 14T magnet (Magnex Scientific, Oxford, England), with an 89-mm bore and 100 G/cm gradient coil. An inversion-recovery prepared spin-echo sequence and a multi-echo spin-echo sequence were used to determine T1 and T2, respectively. Parameters were estimated in three regions of interest (ROIs), outer gray matter (GMo), inner gray matter (GMi), and white matter (WM), using a nonlinear least-squares fitting routine using the following equations, a:
SIIR−SE=Mo(1−2αe^−TIIT^1)SISE∝Moe^−TEIT^2
where α represents flip angle deviation from 180° and Mo is the equilibrium magnetization.

For Luxol fast blue [LFB], the “decrease of T1 in inner gray matter (GMi)” value is on record as 41%, the “decrease of T1 in outer gray matter (GMo)” value amounted to 30% and the “decrease of T1 in white matter (WM)” value is reported as 47%.
